Entries after “also recorded” stand apart in the source; their conditions may differ.
What was measured:
PC-3CTRwt cells = assay: Transepithelial electric resistance (TER); format: cell-based
Procedure: (§1) Cells were plated on Transwell filters (0.4 μm pore size) and grown to confluency in complete medium (RPMI1640 containing 10% fetal bovine serum, 20 mM HEPES and antibiotics). TER of the cultures (in duplicate wells) was measured at several time intervals with EVOM volt-ohm meter as previously described (Shah et al, 2009). The readings were corrected for blank (TER values from the filter in bathing medium). The integrity and cell density of monolayers were carefully monitored.
(§2) To examine the effect of calcitonin (CT) on tight junctions (TJs), the transepithelial electric resistance (TER) of polarized PC-3 cells expressing either the vector (PC-3V), CTRwt or CTRΔESS was monitored for 8 hours after CT stimulation (FIG. 2A). Polarized PC-3V, PC-3 CTRwt and PC-3 CTR-ΔESS cells were serum-starved for 4 hours, then treated with or without 50 nM CT. TER was measured with EVOM volt-ohm meter, and results expressed as Ωcm^2±SEM (n=6). […] Since PC-3 cells secrete CT, the expression of CTRwt may have activated CT-CTR axis causing almost 40% reduction of TER in PC-3CTRwt cells.
The effect of CT on TJ functionality was tested by monitoring TER of PC-3CTRwt monolayers. […] Polarized PC-3-CTRwt cells were serum-starved for 4 hours, then treated with or without 50 nM CT. TER was measured with EVOM volt-ohm meter. The results are expressed as TER ±SEM (Ωcm^2±SEM; n=6). […] PCP was determined by diffusion of ˜4 kDa TRITC-conjugated dextran from the upper to the lower chamber in one hour. The results are expressed as μg/ml/hour of TRITC-Dextran diffused ±SEM (n=6; *p<0.05 (−CT v +CT, One way ANOVA and Newman-Keul's test)).
To understand the significance of CT-induced, PKA-dependent disassembly of TJs in PC cell adhesion and invasion, the action of CT was examined on TER, PCP, cell adhesion and invasion in PC-3CTRwt cells in the presence/absence of mPKI. […] Similarly, mPKI abrogated the actions of CT on PCP and invasion (FIGS. 20B and 20C respectively). Next, the adhesion of PC-3CTRwt cells was examined on culture dishes.

[1] = test system: UMUC3, RT4, A2780, OVCAR8 and A549 cancer cell lines; assay: Transepithelial electric resistance (TER) in other cancer cell lines; format: cell-based, human
Procedure: as §1
Next, whether CTR destabilizes tight junctions and increases invasion in these cancers was tested by examining the effect of CT on transepithelial electric resistance (TER), paracellular permeability (PCP) and invasion in cancer cell lines derived from bladder cancer (UMUC3 and RT4), ovarian cancer (A2780 and OVCAR8), and lung cancer (A549). Prostate cancer cell line PC-3CTR was used a reference line. […] This was further confirmed by the actions of CT on PCP (FIG. 26A) and cell invasion (FIG. 26B). […] The role of CT-CTR axis is to destabilize junction complexes and increase invasion in cancers as diverse as prostate, bladder, lung and ovarian cancers.

PC-3V cells = assay: Transepithelial electric resistance (TER); format: cell-based; conditions: 50 nM CT
Procedure: as §1, §2

PC-3CTRΔESS cells = assay: Transepithelial electric resistance (TER); format: cell-based
Procedure: as §1, §2

[2] = test system: PC-3M cells expressing ZO-1-wt or its ΔPDZ mutants; assay: Transepithelial electric resistance (TER); format: cell-based; conditions: CT 50 nM
Procedure: as §1
Since ZO-1 contains three PDZ domains, which of these interacts with CTR-C PDZ-binding motif was analyzed. PC-3M cells was used for this study because they are PC-3-derived, but co-express both CT and CTR, and are suitable to examine modulation of CTR action in response to mutations in ZO-1 (Chien et al., 2001). To knock down endogenous ZO-1 expression, PC-3M cells were stably transfected with constitutive ZO-1 shRNA expression vector (pSuper.neo system; shRNA duplex-5′-GACGAGAUAAUCCUCAUUUtt-3′ (SEQ ID NO:8) corresponding to 596-614 bp of ZO-1 mRNA). Since the constitutive presence of ZO-1 siRNA in PC-3M cells could interfere with the re-expression of ZO-1 wt or its ΔPDZ mutants, ZO-1 (wt or ΔPDZ mutants) cDNA expression vectors refractory to ZO-1 RNAi were generated by introducing a silent mutation in RNAi target sequence in the ZO-1 transgene. […]

For calcitonin [CT], the TER (PC-3CTRwt cells; 50 nM CT) was “decreased TER even further; also recorded: relatively rapid decline in TER; also recorded: steady, remarkable decline”, the “time at which decline in TER became apparent” value (PC-3CTRwt cells; 50 nM CT) was ≤ 10 min and the “time to remarkable drop in TER” value (PC-3CTRwt cells; 50 nM CT) was ≤ 30 min. For the same substance, the “TER at multiple CT concentrations” value (PC-3CTRwt cells; CT 10 and 100 nM) was “significant decrease”, the “response to CT” value ([1]; aggressive cell lines) was “responded extremely well” and the “response to CT” value ([1]; well-differentiated lines RT4 and OVCAR8) was “responded poorly”. For the same substance, the TER ([1]; with CT, all these cell lines) was “decreased TER”, the TER (PC-3V cells) was “did not alter it” and the TER (PC-3CTRΔESS cells; 50 nM CT) was “did not affect TER”. The “TER at multiple CT concentrations” value (PC-3CTRΔESS cells; all CT concentrations) was “did not show any changes”, the TER ([2]; cells expressing ZO-1-ΔPDZ3) was “no decrease in TER” and the TER ([2]; cells re-expressing ZO-1-wt, ΔPDZ1 or ΔPDZ2) was “remarkable decline in TER”.

Source: patent publication US9765115B2, “Inhibitors of metastasis, methods of generating such inhibitors and their therapeutic applications” (Board of Supervisors of Louisiana State University acting …, priority 2011, dated 2017)
